Results reported in ChEMBL document CHEMBL3045374, “Selective herbicide activity of 2,5-di(benzylamine)-p-benzoquinone against the monocot weed Echinochloa crusgalli. An in vivo analysis of photosynthesis and growth” (2005).
Activity calls are given as the source filed them. No cut-off for these calls is given here.

What was measured:
Phaseolus vulgaris [1] = test: Herbicidal activity against Phaseolus vulgaris using youngest fully expanded leaf assessed as inhibition of stomatal conductance at 40 uM at 25 to 28 degC measured after 120 hr; assay type: functional, organism-based
Echinochloa crus-galli [2] = test: Herbicidal activity against Echinochloa crus-galli (barnyard grass) using youngest fully expanded leaf assessed as inhibition of CO2 assimilation at 40 uM at 25 to 28 degC measured after 1 hr; assay type: functional
Echinochloa crus-galli [3] = test: Herbicidal activity against Echinochloa crus-galli (barnyard grass) using youngest fully expanded leaf assessed as inhibition of stomatal conductance at 40 uM at 25 to 28 degC measured after 1 hr; assay type: functional
Echinochloa crus-galli [4] = test: Herbicidal activity against Echinochloa crus-galli (barnyard grass) using youngest fully expanded leaf assessed as inhibition of stomatal conductance at 40 uM at 25 to 28 degC measured after 20 hr; assay type: functional
Echinochloa crus-galli [5] = test: Herbicidal activity against Echinochloa crus-galli (barnyard grass) using youngest fully expanded leaf assessed as inhibition of CO2 assimilation at 40 uM at 25 to 28 degC measured after 24 hr; assay type: functional
Echinochloa crus-galli [6] = test: Herbicidal activity against Echinochloa crus-galli (barnyard grass) using youngest fully expanded leaf assessed as inhibition of CO2 assimilation at 40 uM at 25 to 28 degC measured after 5 days; assay type: functional, organism-based
Phaseolus vulgaris [7] = test: Herbicidal activity against Phaseolus vulgaris using youngest fully expanded leaf assessed as inhibition of CO2 assimilation at 40 uM at 25 to 28 degC measured after 120 hr; assay type: functional, organism-based
[8] = target: T1, Photosystem I iron-sulfur center (Panicum virgatum) (UniProt G3EFH9); test: Inhibition of PSI in Echinochloa crus-galli (barnyard grass) assessed as 50% compound concentration required to accept electrons
T1 sequence (whole entry): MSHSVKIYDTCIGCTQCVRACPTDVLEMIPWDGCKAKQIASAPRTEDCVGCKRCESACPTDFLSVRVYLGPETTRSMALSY

Echinochloa crus-galli [9] = test: Herbicidal activity against Echinochloa crus-galli (barnyard grass) assessed as chlorophyll loss at 40 uM measured after 5 days treatment (reference value: 0%); assay type: functional
Echinochloa crus-galli [10] = test: Herbicidal activity against Echinochloa crus-galli (barnyard grass) assessed as electrolyte leakage at 40 uM measured after 5 days treatment (reference value: 100%); assay type: functional
Physalis ixocarpa [11] = test: Herbicidal activity against Physalis ixocarpa assessed as reduction in dry biomass at 40 uM measured after 14 days treatment; assay type: functional, organism-based
Phaseolus vulgaris [12] = test: Herbicidal activity against Phaseolus vulgaris assessed as reduction in dry biomass at 40 uM measured after 14 days treatment; assay type: functional, organism-based
Echinochloa crus-galli [13] = test: Herbicidal activity against Echinochloa crus-galli (barnyard grass) assessed as reduction in dry biomass at 40 uM measured after 14 days treatment; assay type: functional; conditions: 336 h
Zea mays [14] = test: Herbicidal activity against Zea mays (maize) assessed as reduction in dry biomass at 40 uM measured after 14 days treatment; assay type: functional; conditions: 336 h
[15] = target: Photosystem II reaction center protein M (Pennisetum americanum) (UniProt Q672I5); test: Inhibition of PSII in Echinochloa crus-galli (barnyard grass) using leaf assessed as inhibition of electron transport at 40 uM measured after 7 to 14 days
Solanum lycopersicum = test: Induction of chlorophyll a fluorescence curve in green Solanum lycopersicum (tomato) leaf relative to control; assay type: functional, organism-based
Fabaceae = test: Induction of chlorophyll a fluorescence curve in Fabaceae (bean) leaf relative to control; assay type: functional, organism-based
Zea mays [16] = test: Induction of chlorophyll a fluorescence curve in Zea mays (maize) leaf relative to control; assay type: functional, organism-based
[17] = target: T1, Photosystem I iron-sulfur center (Panicum virgatum); test: Inhibition of PSI in Echinochloa crus-galli (barnyard grass) using dark-adapted leaf assessed as photosynthetic electron transport at 40 uM measured after 1 hr by chlorophyll fluorescence induction curve assay
[18] = target: Photosystem II reaction center protein M (Pennisetum americanum) (UniProt Q672I5); test: Inhibition of PSII in Echinochloa crus-galli (barnyard grass) using dark-adapted leaf assessed as photosynthetic electron transport at 40 uM measured after 1 hr by chlorophyll fluorescence induction curve assay
Physalis ixocarpa [19] = test: Herbicidal activity against Physalis ixocarpa using youngest fully expanded leaf assessed as intracellular CO2 concentration at 40 uM at 25 to 28 degC measured after 120 hr (reference value: 254.0 +/- 8.6 uL/L); assay type: functional
Phaseolus vulgaris [20] = test: Herbicidal activity against Phaseolus vulgaris using youngest fully expanded leaf assessed as intracellular CO2 concentration at 40 uM at 25 to 28 degC measured after 120 hr (reference value: 256.0 +/- 5.8 uL/L); assay type: functional
Echinochloa crus-galli [21] = test: Herbicidal activity against Echinochloa crus-galli (barnyard grass) using youngest fully expanded leaf assessed as intracellular CO2 concentration at 40 uM at 25 to 28 degC measured after 120 hr (reference value: 171.0 +/- 23.1 uL/L); assay type: functional
Zea mays [22] = test: Herbicidal activity against Zea mays (maize) using youngest fully expanded leaf assessed as intracellular CO2 concentration at 40 uM at 25 to 28 degC measured after 120 hr (reference value: 196.1 +/- 4.9 uL/L); assay type: functional
Physalis ixocarpa [23] = test: Herbicidal activity against Physalis ixocarpa using youngest fully expanded leaf assessed as stomatal conductance at 40 uM at 25 to 28 degC measured after 120 hr (reference value: 184.6 +/- 36.6 mmol/m'2/s); assay type: functional
Phaseolus vulgaris [24] = test: Herbicidal activity against Phaseolus vulgaris using youngest fully expanded leaf assessed as stomatal conductance at 40 uM at 25 to 28 degC measured after 120 hr (reference value: 161.8 +/- 10 mmol/m'2/s); assay type: functional
Echinochloa crus-galli [25] = test: Herbicidal activity against Echinochloa crus-galli (barnyard grass) using youngest fully expanded leaf assessed as stomatal conductance at 40 uM at 25 to 28 degC measured after 120 hr (reference value: 100.7 +/- 8.6 mmol/m'2/s); assay type: functional
Zea mays [26] = test: Herbicidal activity against Zea mays (maize) using youngest fully expanded leaf assessed as stomatal conductance at 40 uM at 25 to 28 degC measured after 120 hr (reference value: 103.9 +/- 6.5 mmol/m'2/s); assay type: functional
Physalis ixocarpa [27] = test: Herbicidal activity against Physalis ixocarpa using youngest fully expanded leaf assessed as inhibition of CO2 assimilation at 40 uM at 25 to 28 degC measured after 120 hr (reference value: 6.3 +/- 0.6 umol/m'2/s); assay type: functional
Phaseolus vulgaris [28] = test: Herbicidal activity against Phaseolus vulgaris using youngest fully expanded leaf assessed as inhibition of CO2 assimilation at 40 uM at 25 to 28 degC measured after 120 hr (reference value: 7.2 +/- 0.3 umol/m'2/s); assay type: functional
Echinochloa crus-galli [29] = test: Herbicidal activity against Echinochloa crus-galli (barnyard grass) using youngest fully expanded leaf assessed as inhibition of CO2 assimilation at 40 uM at 25 to 28 degC measured after 120 hr (reference value: 10.7 +/- 1.1 umol/m'2/s); assay type: functional
Zea mays [30] = test: Herbicidal activity against Zea mays (maize) using youngest fully expanded leaf assessed as inhibition of CO2 assimilation at 40 uM at 25 to 28 degC measured after 120 hr (reference value: 8 +/- 0.4 umol/m'2/s); assay type: functional
Echinochloa crus-galli [31] = test: Herbicidal activity against Echinochloa crus-galli (barnyard grass) using youngest fully expanded leaf assessed as inhibition of stomatal conductance at 40 uM at 25 to 28 degC measured after 120 hr; assay type: functional, organism-based

For `O=C1C=C(Nc2ccccc2)C(=O)C=C1Nc1ccccc1`, the inhibition (Phaseolus vulgaris [1]) was “inactive”, the inhibition at 40 µM (Echinochloa crus-galli [2]) was 80% and the inhibition at 40 µM (Echinochloa crus-galli [3]) was 45%. The inhibition at 40 µM (Echinochloa crus-galli [4]) was 62%, the inhibition at 40 µM (Echinochloa crus-galli [5]) was 84% and the inhibition (Echinochloa crus-galli [6]) was “Active”. The inhibition (Phaseolus vulgaris [7]) was “inactive”.

For `COc1ccccc1NC1=CC(=O)C(Nc2ccccc2OC)=CC1=O`, the inhibition (Phaseolus vulgaris [1]) was “inactive”, the inhibition at 40 µM (Echinochloa crus-galli [2]) was 80% and the inhibition at 40 µM (Echinochloa crus-galli [3]) was 45%. For the same molecule, the inhibition at 40 µM (Echinochloa crus-galli [4]) was 62%, the inhibition at 40 µM (Echinochloa crus-galli [5]) was 84% and the inhibition (Phaseolus vulgaris [7]) was “inactive”.

With `O=C1C=C(Nc2ccccc2O)C(=O)C=C1Nc1ccccc1O` the inhibition (Phaseolus vulgaris [1]) was “inactive”, the inhibition at 40 µM (Echinochloa crus-galli [2]) was 80% and the inhibition at 40 µM (Echinochloa crus-galli [3]) was 45%. For the same molecule, the inhibition at 40 µM (Echinochloa crus-galli [4]) was 62%, the inhibition at 40 µM (Echinochloa crus-galli [5]) was 84% and the inhibition (Echinochloa crus-galli [6]) was “Active”. For the same molecule, the inhibition (Phaseolus vulgaris [7]) was “inactive”.

With `C[C@H](NC1=CC(=O)C(N[C@@H](C)[C@H](O)c2ccccc2)=CC1=O)[C@H](O)c1ccccc1` the inhibition (Phaseolus vulgaris [1]) was “inactive”, the inhibition at 40 µM (Echinochloa crus-galli [2]) was 80% and the inhibition at 40 µM (Echinochloa crus-galli [3]) was 45%. For the same molecule, the inhibition at 40 µM (Echinochloa crus-galli [4]) was 62%, the inhibition at 40 µM (Echinochloa crus-galli [5]) was 84% and the inhibition (Phaseolus vulgaris [7]) was “inactive”.

For `CC(NC1=CC(=O)C(NC(C)c2ccccc2)=CC1=O)c1ccccc1` (configuration not stated), the inhibition (Phaseolus vulgaris [1]) was “inactive”, the inhibition at 40 µM (Echinochloa crus-galli [2]) was 80% and the inhibition at 40 µM (Echinochloa crus-galli [3]) was 45%. For the same molecule, the inhibition at 40 µM (Echinochloa crus-galli [4]) was 62%, the inhibition at 40 µM (Echinochloa crus-galli [5]) was 84% and the inhibition (Phaseolus vulgaris [7]) was “inactive”.

In the case of `O=C1C=C(NCc2ccccc2)C(=O)C=C1NCc1ccccc1`, the Activity [8] was 0.23 µM, the Activity (Echinochloa crus-galli [9]) was 3.5% and the Activity (Echinochloa crus-galli [10]) was 135.6%. For the same molecule, the inhibition (Physalis ixocarpa [11]) was “inactive”, the inhibition (Phaseolus vulgaris [12]) was “inactive” and the inhibition at 40 µM (Echinochloa crus-galli [13]) was 76.5%. For the same molecule, the inhibition at 40 µM (Zea mays [14]) was 60%, the inhibition [15] was 44% and the Activity (Solanum lycopersicum) was “inactive”. The Activity (Fabaceae) was “inactive”, the Activity (Zea mays [16]) was “inactive” and the inhibition [17] was “Active”. The inhibition [18] was “inactive”, the Activity (Physalis ixocarpa [19]) was 254.3 uL/L and the Activity (Phaseolus vulgaris [20]) was 254 uL/L. The Activity (Echinochloa crus-galli [21]) was 221 uL/L, the Activity (Zea mays [22]) was 212 uL/L and the Activity (Physalis ixocarpa [23]) was 151.2 mmol/m2/s. The Activity (Phaseolus vulgaris [24]) was 150 mmol/m2/s, the Activity (Echinochloa crus-galli [25]) was 75.3 mmol/m2/s and the Activity (Zea mays [26]) was 82.4 mmol/m2/s. The Activity (Physalis ixocarpa [27]) was 5.6 micromol/m2/s, the Activity (Phaseolus vulgaris [28]) was 7 micromol/m2/s and the Activity (Echinochloa crus-galli [29]) was 4.2 micromol/m2/s. The Activity (Zea mays [30]) was 7.2 micromol/m2/s, the inhibition (Phaseolus vulgaris [1]) was “inactive” and the inhibition at 40 µM (Echinochloa crus-galli [2]) was 80%. It also gave an inhibition at 40 µM (Echinochloa crus-galli [3]) of 45%, an inhibition at 40 µM (Echinochloa crus-galli [4]) of 62% and an inhibition at 40 µM (Echinochloa crus-galli [5]) of 84%. The inhibition (Echinochloa crus-galli [31]) was “Active” and the inhibition (Phaseolus vulgaris [7]) was “inactive”.

With `C[n+]1ccc(-c2cc[n+](C)cc2)cc1` [PARAQUAT] the Activity [8] was 110 µM, the Activity (Echinochloa crus-galli [9]) was 44.3% and the Activity (Echinochloa crus-galli [10]) was 438.59%.
